Measurements reported in ChEMBL document CHEMBL5634178, “Precursor-Directed Biosynthesis of Neoantimycin Derivatives with Selective Cytotoxicity” (J Nat Prod, 2024).

Legend:
[1] = Cytotoxicity against human NCM460 cells assessed as reduction in cell viability incubated for 72 hrs by CCK-8 assay; format: toxicity, cell-based
[2] = system: NCI-H1299; experiment: Cytotoxicity against human NCI-H1299 cells expressing N-ras mutant assessed as reduction in cell viability incubated for 72 hrs by CCK-8 assay; format: functional, cell-based; settings: NCI-H1299, 72 h
[3] = system: DLD-1; experiment: Cytotoxicity against human DLD-1 cells expressing K-Ras G13D mutant assessed as reduction in cell viability incubated for 72 hrs by CCK-8 assay; format: functional, cell-based; settings: DLD-1, 72 h
[4] = system: HT-29; experiment: Cytotoxicity against wild type human HT-29 cells assessed as reduction in cell viability incubated for 72 hrs by CCK-8 assay; format: functional, cell-based; settings: HT-29, 72 h
[5] = system: SW-620; experiment: Cytotoxicity against human SW620 cells expressing K-Ras G12V mutant assessed as reduction in cell viability incubated for 72 hrs by CCK-8 assay; format: functional, cell-based; settings: SW-620, 72 h
[6] = system: A549; experiment: Cytotoxicity against human A549 cells expressing K-Ras […] mutant assessed as reduction in cell viability incubated for 72 hrs by CCK-8 assay; format: functional, cell-based; settings: A549, 72 h
[7] = system: NCI-H460; experiment: Cytotoxicity against human NCI-H460 cells expressing K-Ras Q61H mutant assessed as reduction in cell viability incubated for 72 hrs by CCK-8 assay; format: functional, cell-based; settings: NCI-H460, 72 h

| SMILES | IC50 at 72 h [1] [µM] | IC50 [2] [µM] | IC50 [3] [µM] | IC50 [4] [µM] | IC50 [5] [µM] | IC50 [6] [µM] | IC50 [7] [µM] |
| --- | --- | --- | --- | --- | --- | --- | --- |
| CC[C@H](C)[C@@H]1OC(=O)C(C)(C)C(=O)[C@H](Cc2ccccc2)OC(=O)[C@H](C(C)C)OC(=O)[C@@H](NC(=O)c2ccccc2)[C@@H](C)OC1=O | > 20 | > 20 | 1.9 | > 20 | 0.36 | > 20 | > 20 |
| CC[C@H](C)[C@@H]1OC(=O)C(C)(C)C(=O)[C@H](Cc2ccccc2)OC(=O)[C@H](C(C)C)OC(=O)[C@@H](NC(=O)c2cccc(F)c2)[C@@H](C)OC1=O | > 20 | > 20 | 3.5 | > 20 | 1.1 | > 20 | > 20 |
| CC[C@H](C)[C@@H]1OC(=O)C(C)(C)C(=O)[C@@H](Cc2ccccc2)OC(=O)[C@H](C(C)C)OC(=O)[C@@H](NC(=O)c2cccc(F)c2)[C@@H](C)OC1=O | > 20 | > 20 | 2.7 | > 20 | 0.33 | 11.2 | 8.8 |
| CC[C@H](C)[C@@H]1OC(=O)C(C)(C)C(=O)[C@@H](Cc2ccccc2)OC(=O)[C@H](C(C)C)OC(=O)[C@@H](NC(=O)c2cccc(O)c2)[C@@H](C)OC1=O | > 20 | > 20 | > 20 | > 20 | 1.9 | 10.1 | > 20 |
| CC[C@H](C)[C@@H]1OC(=O)C(C)(C)C(=O)[C@@H](Cc2ccccc2)OC(=O)[C@H](C(C)C)OC(=O)[C@@H](NC(=O)c2ccccc2)[C@@H](C)OC1=O | > 20 | 4.5 | 0.07 | > 20 | 0.04 | 0.33 | 1.6 |
| CC[C@H](C)[C@@H]1OC(=O)C(C)(C)C(=O)[C@@H](Cc2ccccc2)OC(=O)[C@H](C(C)C)OC(=O)[C@@H](NC(=O)c2ccccc2O)[C@@H](C)OC1=O | 6.6 | > 20 | 2.8 | > 20 | 0.33 | 9.7 | 4.4 |
| CC[C@H](C)[C@@H]1OC(=O)C(C)(C)C(=O)[C@@H](Cc2ccccc2)OC(=O)[C@H](C(C)C)OC(=O)[C@@H](NC(=O)c2ccccc2F)[C@@H](C)OC1=O | > 20 | 3.3 | 0.6 | > 20 | 0.14 | 4.3 | 1.3 |
| CC[C@H](C)[C@@H]1OC(=O)C(C)(C)[C@@H](O)[C@@H](Cc2ccccc2)OC(=O)[C@H](C(C)C)OC(=O)[C@@H](NC(=O)c2cccc(NC=O)c2O)[C@@H](C)OC1=O | 0.00024 | 0.0105 | 0.059 | 0.0006 | 0.0038 | 4e-05 | 0.316 |
| CC[C@H](C)[C@@H]1OC(=O)C(C)(C)C(=O)[C@H](Cc2ccccc2)OC(=O)[C@H](C(C)C)OC(=O)[C@@H](NC(=O)c2ccccc2F)[C@@H](C)OC1=O | > 20 | > 20 | 2.6 | 9.4 | 0.56 | > 20 | > 20 |
| CC[C@H](C)[C@@H]1OC(=O)C(C)(C)C(=O)[C@H](Cc2ccccc2)OC(=O)[C@H](C(C)C)OC(=O)[C@@H](NC(=O)c2cccc(O)c2)[C@@H](C)OC1=O | > 20 | 3.1 | > 20 | > 20 | 1.3 | > 20 | 17.9 |
